We go through 51 molecules from patent publication KR20130112248A, “피라졸로피리미딘 유도체 화합물, 이를 포함하는 산화질소 생성 억제용 조성물 및 뇌신경 질환 예방 및 치료용 약학적 조성물” (한국과학기술연구원, priority 2012, dated 2013).

The subject of the first assay is NO production in BV-2 cells [NO 생성; BV-2 세포]. As to the kind of experiment: Nitric oxide (NO) quantification (nitrite, Griess reaction) in LPS-activated BV-2 cells. The note with it: 20 μM, LPS 0.2 ㎍/mL, 24 h co-treatment, nitrite by Griess at 540 nm. In kind it is cell-based.
Regarding “1-(N-t-Boc-아미노에틸)-4-(1-하이드록시에틸)아미노-6-(메틸티오)피라졸로[3,4-d]피리미딘 [화합물 14b]”, the “NO (% of LPS)” value is 102±4 % of LPS.

Still in this assay, the particulars now being: 20 μM, LPS 0.2 ㎍/mL, 24 h co-treatment, nitrite by Griess at 540 nm, 1440 min.
`CC(Nc1nc(S(C)(=O)=O)nc2c1cnn2Cc1ccccc1)c1ccccc1` (single isomer, unassigned) [화합물 23r, 1-벤질-6-(메틸설포닐)-N-(1-페닐에틸)-1H-피라졸로[3,4-d]피리미딘-4-아민]: the “NO (% of LPS)” value was 87±7.1 % of LPS.

Consider `CC(Nc1nc(S(C)(=O)=O)nc2c1cnn2Cc1ccccc1)c1ccccc1` (single isomer, unassigned) [화합물 23q, 1-벤질-6-(메틸설포닐)-N-(1-페닐에틸)-1H-피라졸로[3,4-d]피리미딘-4-아민], for which the “NO (% of LPS)” value is given as 122±2.8 % of LPS.

In the case of `CC(Nc1nc([S+](C)[O-])nc2c1cnn2Cc1ccccc1)c1ccccc1` (stereo not drawn) [화합물 22j, 1-벤질-6-(메틸설파이닐)-N-(1-페닐에틸)-1H-피라졸로[3,4-d]피리미딘-4-아민], the “NO (% of LPS)” value is 70±3.9 % of LPS.

Consider `CSc1nc(N[C@H](C)c2ccccc2)c2cnn(C(C)(C)C)c2n1` [화합물 17g, (R)-1-t-뷰틸-4-(1-페닐에틸)아미노-6-(메틸티오)피라졸로[3,4-d]피리미딘], for which the “NO (% of LPS)” value is given as 42±18 % of LPS.

Consider `CC(Nc1nc([S+](C)[O-])nc2c1cnn2Cc1ccccc1)c1ccccc1` (stereo not drawn) [화합물 22i, 1-벤질-6-(메틸설파이닐)-N-(1-페닐에틸)-1H-피라졸로[3,4-d]피리미딘-4-아민], for which the “NO (% of LPS)” value is on record as 81±7.5 % of LPS.

The same assay, now with this note: Mus musculus, BV-2, 24 h, 20 μM, LPS 0.2 ㎍/mL, 24 h co-treatment, nitrite by Griess at 540 nm.
Regarding `CSc1nc(NCc2ccccc2C)c2cnn(-c3ccc(C)cc3)c2n1` [화합물 21c, N-(2-메틸벤질)-6-(메틸티오)-1-p-톨릴-1H-피라졸로[3,4-d]피리미딘-4-아민], the activity at 20 µM stood at 47 ± 6.8%.

In the case of `CCCCNc1nc(S(C)(=O)=O)nc2c1cnn2-c1ccccc1` [화합물 23a, N-뷰틸-6-(메틸설포닐)-1-페닐-1H-피라졸로[3,4-d]피리미딘-4-아민], the activity at 20 µM amounted to 40 ± 7.1%.

In the case of `CSc1nc(NCc2ccccc2C)c2cnn(CCO)c2n1` [화합물 27g, 2-(4-(2-메틸벤질아미노)-6-(메틸티오)-1H-피라졸로[3,4-d]피리미딘-1-일)에탄올], the activity at 20 µM is 82 ± 2.5%.

Consider `CSc1nc(N[C@H](C)c2ccccc2)c2cnn(C(C)(C)C)c2n1` [화합물 17b, (R)-1-t-뷰틸-4-(1-페닐에틸)아미노-6-(메틸티오)피라졸로[3,4-d]피리미딘], for which the activity at 20 µM was 61 ± 1%.

`COc1cccc(CCn2ncc3c(NCc4cccc(OC)c4)nc(SC)nc32)c1` [화합물 18d, N-(3-메톡시벤질)-1-(3-메톡시펜에틸)-6-(메틸티오)-1H-피라졸로[3,4-d]피리미딘-4-아민]: the activity at 20 µM came to 39 ± 4.8%.

As to `CSc1nc(NCc2ccccn2)c2cnn(C(C)(C)C)c2n1` [화합물 17m, 1-t-뷰틸-6-(메틸티오)-N-((피리딘-2-일)메틸)-1H-피라졸로[3,4-d]피리미딘-4-아민], the activity at 20 µM came to 92 ± 6.6%.

For `COc1cccc(CNc2nc(S(C)(=O)=O)nc3c2cnn3CCc2ccccc2OC)c1` [화합물 23z, 1-(2-메톡시펜에틸)-N-(3-메톡시벤질)-6-(메틸설포닐)-1H-피라졸로[3,4-d]피리미딘-4-아민], the activity at 20 µM was determined as 51 ± 3.5%.

Consider `C=CCn1ncc2c(NCc3ccc(OC)cc3)nc(SC)nc21` [화합물 13m, N-(4-메톡시벤질)-1-알릴-6-(메틸티오)-1H-피라졸로[3,4-d]피리미딘-4-아민], for which the activity at 20 µM was 8.6 ± 2.7%.

Take `COc1cccc(CCn2ncc3c(NCc4ccccc4)nc(SC)nc32)c1` [화합물 18h, 1-(3-메톡시펜에틸)-N-벤질-6-(메틸티오)-1H-피라졸로[3,4-d]피리미딘-4-아민]: the activity at 20 µM was 56 ± 3.1%.

Regarding `COc1ccc(CNc2nc(SC)nc3c2cnn3C(C)(C)C)cc1` [화합물 17e, 1-t-뷰틸-4-(4-메톡시벤질)아미노-6-(메틸티오)피라졸로[3,4-d]피리미딘], the activity at 20 µM is 21 ± 27%.

On to `COc1ccccc1CCn1ncc2c(NCc3ccc(F)cc3)nc(SC)nc21` [화합물 19d, 1-(2-메톡시펜에틸)-N-(4-플루오로벤질)-6-(메틸티오)-1H-피라졸로[3,4-d]피리미딘-4-아민], for which the activity at 20 µM came to 40 ± 1.1%.

With `CSc1nc(NCc2ccc(C)cc2)c2cn[nH]c2n1` [6q, 4-(4-메틸벤질)아미노-6-(메틸티오)피라졸로[3,4-d]피리미딘], the activity at 20 µM came out at 90 ± 15%.

As for `C=CCSc1nc(SC)nc2c1cnn2-c1ccccc1` [화합물 25b, 1-페닐-4-알릴티오-6-(메틸티오)피라졸로[3,4-d]피리미딘], the activity at 20 µM was determined as 89 ± 6%.

Consider `CSc1nc(NCc2ccccc2)c2cnn(CCO)c2n1` [화합물 27a, 1-(1-하이드록시에틸)-4-벤질아미노-6-(메틸티오)피라졸로[3,4-d]피리미딘], for which the activity at 20 µM was 77 ± 5%.

As for `CSc1nc(NCCO)c2cnn(C)c2n1` [12e, 1-메틸-4-(1-하이드록시에틸)아미노-6-(메틸티오)피라졸로[3,4-d]피리미딘], the activity at 20 µM worked out at 91 ± 2%.

As for `CSc1nc(NC(C)(C)CO)c2cnn(CCNC(=O)OC(C)(C)C)c2n1` [화합물 14h, 2-(4-(1-하이드록시-2-메틸프로판-2-일아미노)-6-(메틸티오)-1H-피라졸로[3,4-d]피리미딘-1-일)에틸카바메이트], the activity at 20 µM amounted to 78.9 ± 1.6%.

`CSc1nc(NCCO)c2cnn(-c3ccccc3)c2n1` [화합물 15d, 1-페닐-4-(1-하이드록식에틸)아미노-6-(메틸티오)피라졸로[3,4-d]피리미딘]: the activity at 20 µM was determined as 68 ± 7%.

On to `CC(Nc1nc(NCCOCCO)nc2c1cnn2Cc1ccccc1)c1ccccc1` (stereo not drawn) [화합물 24d, 2-(2-(4-(1-페닐에틸아미노)-1-벤질-1H-피라졸로[3,4-d]피리미딘-6-일아미노)에톡시)에탄올], for which the activity at 20 µM stood at 130 ± 1.8%.

With `CSc1nc(NC(C)c2ccccc2)c2cnn(C)c2n1` (stereo not drawn) [화합물 12o, 1-메틸-6-(메틸티오)-N-(1-페닐에틸)-1H-피라졸로[3,4-d]피리미딘-4-아민], the activity at 20 µM was 70 ± 5%.

Consider `CCN(CC)c1nc(SC)nc2c1cnn2-c1ccccc1` [화합물 15w, 1-페닐-4-다이에틸아미노-6-(메틸티오)피라졸로[3,4-d]피리미딘], for which the activity at 20 µM came to 79 ± 3%.

Take `C=CCn1ncc2c(NCc3ccccc3C)nc(SC)nc21` [화합물 13h, N-(2-메틸벤질)-1-알릴-6-(메틸티오)-1H-피라졸로[3,4-d]피리미딘-4-아민]: the activity at 20 µM stood at 25 ± 0.3%.

For the molecule `CS(=O)(=O)c1nc(NCc2ccccc2Cl)c2cnn(-c3ccccc3)c2n1` [화합물 23b, N-(2-클로로벤질)-6-(메틸설포닐)-1-페닐-1H-피라졸로[3,4-d]피리미딘-4-아민], the activity at 20 µM was determined as 93 ± 2%.

`CSc1nc(NCCN2CCCCC2)c2cn[nH]c2n1` [6g, 4-(2-피페리딘-1-일)에틸아미노-6-(메틸티오)피라졸로[3,4-d]피리미딘]: the activity at 20 µM came to 102 ± 6%.

With `Cc1ccc(C(C)Nc2nc(S(C)(=O)=O)nc3c2cnn3Cc2ccccc2)cc1` (stereo not drawn) [화합물 23u, 1-벤질-6-(메틸설포닐)-N-(1-p-톨릴에틸)-1H-피라졸로[3,4-d]피리미딘-4-아민], the activity at 20 µM was 120 ± 3.1%.

For `CSc1nc(NC(C)C2CCCCC2)c2cnn(Cc3ccccc3)c2n1` (stereo not drawn) [화합물 16z, 1-벤질-N-(1-사이클로헥실에틸)-6-(메틸티오)-1H-피라졸로[3,4-d]피리미딘-4-아민], the activity at 20 µM turned out to be 26 ± 2.4%.

In the case of `CSc1nc(Cl)c2c(-c3ccccc3)nn(Cc3ccccc3)c2n1` [화합물 30b, 1-벤질-3-페닐-4-클로로-6-(메틸티오)피라졸로[3,4-d]피리미딘], the activity at 20 µM turned out to be 31 ± 19%.

For `COc1cccc(CCn2ncc3c(NCc4ccccc4OC)nc([S+](C)[O-])nc32)c1` (stereo not drawn) [화합물 22l, N-(2-메톡시벤질)-1-(3-메톡시펜에틸)-6-(메틸설파이닐)-1H-피라졸로[3,4-d]피리미딘-4-아민], the activity at 20 µM is 60 ± 3.3%.

With `COc1ccccc1CNc1nc(SC)nc2c1cnn2CCO` [화합물 27i, 2-(4-(2-메톡시벤질아미노)-6-(메틸티오)-1H-피라졸로[3,4-d]피리미딘-1-일)에탄올], the activity at 20 µM was found to be 83.5 ± 3.1%.

As to `CSc1nc(NC2CCCCC2)c2cn[nH]c2n1` [6t, 4-사이클로헥실아미노-6-(메틸티오)피라졸로[3,4-d]피리미딘], the activity at 20 µM came to 106 ± 5%.

Regarding `C=CCn1ncc2c(NC(C)(C)CO)nc(SC)nc21` [화합물 13k, 2-(1-알릴-6-(메틸티오)-1H-피라졸로[3,4-d]피리미딘-4-일아미노)-2-메틸프로판-1-올], the activity at 20 µM was 15.9 ± 0.6%.

For `C=CCn1ncc2c(Cl)nc(SC)nc21` [5b, 1-알릴-4-클로로-6-(메틸티오)피라졸로[3,4-d]피리미딘], the activity at 20 µM came to 63 ± 8%.

As for `C=CCn1ncc2c(NCc3ccccc3OC)nc(SC)nc21` [화합물 13e, N-(2-메톡시벤질)-1-알릴-6-(메틸티오)-1H-피라졸로[3,4-d]피리미딘-4-아민], the activity at 20 µM worked out at 22.4 ± 0.4%.

For `COc1nc(SC)nc2c1cnn2CCO` [화합물 27f, 2-(4-메톡시-6-(메틸티오)-1H-피라졸로[3,4-d]피리미딘-1-일)에탄올], the activity at 20 µM worked out at 86 ± 3%.

In the case of `CSc1nc(Sc2ccc(F)cc2)c2cnn(Cc3ccccc3)c2n1` [화합물 16u, 4-(4-플루오로페닐티오)-1-벤질-6-(메틸티오)-1H-피라졸로[3,4-d]피리미딘], the activity at 20 µM was 28 ± 1.8%.

`CSc1nc(NCc2ccc(Cl)cc2)c2cnn(C)c2n1` [화합물 12m, 1-메틸-4-(4-클로로벤질)아미노-6-(메틸티오)피라졸로[3,4-d]피리미딘]: the activity at 20 µM came to 53 ± 6%.

For `COc1cccc(CCn2ncc3c(NCc4ccccc4C)nc(SC)nc32)c1` [화합물 18c, N-(2-메틸벤질)-1-(3-메톡시펜에틸)-6-(메틸티오)-1H-피라졸로[3,4-d]피리미딘-4-아민], the activity at 20 µM was found to be 37 ± 7.9%.

Turning to `COc1cccc(CCn2ncc3c(NCc4ccc(F)cc4)nc(SC)nc32)c1` [화합물 18g, 1-(3-메톡시펜에틸)-N-(4-플루오로벤질)-6-(메틸티오)-1H-피라졸로[3,4-d]피리미딘-4-아민], the activity at 20 µM is 58 ± 4.8%.

Consider `C=CCNc1nc(SC)nc2c1cnn2Cc1ccccc1` [화합물 16h, 1-벤질-4-알릴아미노-6-(메틸티오)피라졸로[3,4-d]피리미딘], for which the activity at 20 µM was determined as 66 ± 9%.

For `CSc1nc(NCc2ccccn2)c2cnn(CCNC(=O)OC(C)(C)C)c2n1` [화합물 14k, 2-(4-((피리딘-2-일)메틸아미노)-6-(메틸티오)-1H-피라졸로[3,4-d]피리미딘-1-일)에틸카바메이트], the activity at 20 µM stood at 61 ± 0.8%.

As for `CSc1nc(NCc2ccc(Cl)cc2)c2cnn(Cc3ccccc3)c2n1` [화합물 16zd, N-(4-클로로벤질)-1-벤질-6-(메틸티오)-1H-피라졸로[3,4-d]피리미딘-4-아민], the activity at 20 µM was 46 ± 1.9%.

On to `CSc1nc(NCc2ccc(F)cc2)c2cnn(C)c2n1` [12f, 1-메틸-4-(4-플루오로벤질)아미노-6-(메틸티오)피라졸로[3,4-d]피리미딘], for which the activity at 20 µM was 72 ± 2%.

For the molecule `COc1ccccc1CNc1nc(S(C)(=O)=O)nc2c1cnn2-c1ccc(C)cc1` [화합물 23m, N-(2-메톡시벤질)-6-(메틸설포닐)-1-p-톨릴-1H-피라졸로[3,4-d]피리미딘-4-아민], the activity at 20 µM was 35 ± 3.3%.

Take `CCSc1nc(SC)nc2c1cnn2Cc1ccccc1` [화합물 16l, 1-벤질-4-(에틸티오)-6-(메틸티오)-1H-피라졸로[3,4-d]피리미딘]: the activity at 20 µM is 48 ± 5.1%.

As for `CSc1nc(NCc2ccccn2)c2cnn(Cc3ccccc3)c2n1` [화합물 16zh, 1-벤질-6-(메틸티오)-N-((피리딘-2-일)메틸)-1H-피라졸로[3,4-d]피리미딘-4-아민], the activity at 20 µM is 53 ± 7.2%.

For `C=CCNc1nc(SC)nc2c1cnn2CCc1cccc(OC)c1` [화합물 18i, 1-(3-메톡시펜에틸)-N-알릴-6-(메틸티오)-1H-피라졸로[3,4-d]피리미딘-4-아민], the activity at 20 µM was 78 ± 4.4%.
